Assay results: patent publication US20230285402A1, “Compositions and Methods of Modulating Short-Chain Dehydrogenase Activity” (BOARD OF REGENTS OF THE UNIVERSITY OF TEXAS SYSTEM, priority 2013, published 2023)
pIC50: −log10 of the molar value. Read-outs that look alike come from different tables or passages of the source.

Experiments:
recombinant 15-PGDH [1] = target: T1, recombinant 15-PGDH (Homo sapiens (Human), UniProt P15428); test: Inhibition of enzymatic activity of recombinant 15-PGDH in vitro (NADH generation); format: biochemical; conditions: for IC50: read-out: Enzyme Inhibitor IC50 (nM) at 5 nM 15-PGDH, 5 nM recombinant human 15-PGDH; for pIC50: read-out: IC50
bone marrow = test: Hematopoietic colonies from wild-type mouse bone marrow treated ex vivo; format: cell-based; conditions: 1 uM, ex vivo on ice 2 hours
Excerpt: Treated marrow is again then plated into methylcellulose for counting of hematopoietic colonies.

A549 cells [2] = test: PGE2 in medium of IL1-beta stimulated A549 cells; format: cell-based; conditions: for induction of PGE2 compared with SW033291: 4 nM to 2500 nM; for rank of PGE2 level in medium: 100 nM drug
A549 cells [3] = test: Cellular toxicity by CellTiter-Glo; format: cell-based; conditions: concentrations of up to 10 μM; 24 hours
Description: FIGS. 38(A-C) show assays of cellular toxicity on A549 cells at 24 hours of 15-PGDH inhibitors as assayed by CellTiter-Glo measurement.

[4] = system: cell numbers in a cell culture assay; test: Toxicity in cell culture assay (decrease of cell numbers); format: cell-based; conditions: concentration needed to decrease cell numbers
Description: Time to inhibition refers to the time needed to inhibit the generation of NADH by 15-PGDH from the moment with drug is added into the reaction mix. Delta Tm refers to the shift in melting temperature of recombinant 15-PGDH in the presence of drug (with cofactor NADH also present). Concentration of Full Cell Line Reporter Induction refers to the concentration of drug that needs to be added to reporter cell line to achieve maximal induction of the 15-PGDH-luciferase gene fusion reporter cassette, as measured by luciferase assays. Hepatocyte stability refers to the half-life of compound in the presence of hepatocytes in culture. Toxicity refers to the concentration of compound needed to decrease cell numbers in a cell culture assay.

recombinant 15-PGDH [5] = target: T1, recombinant 15-PGDH; test: Melting temperature shift of recombinant 15-PGDH (SYPRO Orange); format: binding; conditions: for melting temperature: 20 uM compound
[6] = system: 15-PGDH-luciferase fusion reporter in V9m, LS174T and V503 cells; test: 15-PGDH-luciferase fusion reporter induction in colon cancer cell lines; format: cell-based; conditions: for Concentration for Full Cell Line Reporter Induction: maximal induction of reporter; for luciferase activity, in words: V9m, LS174T, V503
[7] = system: PGE2 in colon, bone marrow, liver, lung; test: PGE2 in mouse tissues after IP injection; format: in vivo; conditions: after IP injection
Description: Shown is measurement by Elisa of PGE2 (ng PGE2/mg of tissue protein) from 4 mouse tissues: lung, liver, colon and bone marrow. […] Tissues were harvested for PGE2 assay at either 2 hour (2 h) or 3 hour (3 h) time points following drug injection.

mice = test: Homing of CFSE labeled donor bone marrow cells in lethally irradiated mice; format: in vivo, mouse
Description: Drugs are administered following radiation, following the transplant, and again at 8 hours after the transplant.

15-PGDH mRNA = 15-PGDH mRNA by real-time PCR in colon cancer cell lines; format: cell-based; conditions: treated colon cancer cell lines
Excerpt: In these studies parental cell lines (not containing the 15-PGDH-luciferase reporter) are employed.

T1 sequence (P15428 whole entry): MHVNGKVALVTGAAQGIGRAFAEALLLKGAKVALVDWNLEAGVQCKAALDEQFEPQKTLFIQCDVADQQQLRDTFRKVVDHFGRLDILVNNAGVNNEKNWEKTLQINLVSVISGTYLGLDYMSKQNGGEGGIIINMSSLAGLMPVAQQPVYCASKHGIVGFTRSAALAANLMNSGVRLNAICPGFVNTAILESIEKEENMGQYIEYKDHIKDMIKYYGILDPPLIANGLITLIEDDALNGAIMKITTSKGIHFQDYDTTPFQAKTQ

CCCCSc1nc2nc(-c3cccs3)ccc2[nH]1 [SW208494, 2-(butylthio)-5-(thiophen-2-yl)-3H-imidazo[4,5-b]pyridine]
IC50 (recombinant 15-PGDH [1]): > 7500 nM

CCCC[S+]([O-])CSc1nc(-c2nccs2)cc(-c2nccn2C)c1C#N (stereo not shown) [SW209427]
IC50 (recombinant 15-PGDH [1]): 1480 nM

CCCCS(=O)(=O)c1cc2ccc(-c3ccccc3)nc2s1 [SW208434]
IC50 (recombinant 15-PGDH [1]): > 2500 nM

CCCCS(=O)(=O)c1sc2nc(-c3nccs3)cc(-c3ccc(CO)cc3)c2c1N [SW209333]
IC50 (recombinant 15-PGDH [1]): > 2500 nM

Nc1c([S+]([O-])CCCCCl)sc2nc(-c3cccs3)cc(-c3ccccc3)c12 (stereo not shown) [SW209329, 2-((4-chlorobutyl)sulfinyl)-4-phenyl-6-(thiophen-2-yl)thieno[2,3-b]pyridin-3-amine]
IC50 (recombinant 15-PGDH [1]): 4.36 nM

CCCCC[C@H](O)/C=C/[C@H]1[C@H](O)CC(=O)[C@@H]1C/C=C\CCCC(=O)O [PGE2]
increase in colonies compared with SW033291 treated marrow, in words (bone marrow): lesser increase

CC(=O)OCCCC[S+]([O-])c1sc2nc(-c3cccs3)cc(-c3ccccc3)c2c1N (stereo not shown) [SW209129, 4-((3-amino-4-phenyl-6-(thiophen-2-yl)thieno[2,3-b]pyridin-2-yl)sulfinyl)butyl acetate]
IC50 (recombinant 15-PGDH [1]): 41.5 nM

CC(C)[S+]([O-])c1sc2nc(-c3nccs3)cc(-c3nccn3C)c2c1N (stereo not shown) [SW209279, 2-(isopropylsulfinyl)-4-(1-methyl-1H-imidazol-2-yl)-6-(thiazol-2-yl)thieno[2,3-b]pyridin-3-amine]
IC50 (recombinant 15-PGDH [1]): 4.18 nM

4-((3-amino-4-phenyl-6-(thiophen-2-yl)thieno[2,3-b]pyridin-2-yl)sulfonyl)butyl acetate [SW209128]
IC50 (recombinant 15-PGDH [1]): 4910 nM

CCCC[S+]([O-])c1sc2nc(-c3nccs3)cc(-c3nccn3C)c2c1N (stereo not shown) [SW209125, 2-(butylsulfinyl)-4-(1-methyl-1H-imidazol-2-yl)-6-(thiazol-2-yl)thieno[2,3-b]pyridin-3-amine]
induction of PGE2 compared with SW033291 (A549 cells [2]): increased activity relative to SW033291

CCCC[S+]([O-])c1sc2nc(-c3cccs3)nc(-c3ccccc3)c2c1N (stereo not shown) [SW208067]
rank of PGE2 level in medium (A549 cells [2]): highest levels of PGE2

CCCC[S+]([O-])c1ncccc1N (stereo not shown) [SW208070]
IC50 (recombinant 15-PGDH [1]): > 7500 nM

CCCC[S+]([O-])c1sc2nc(-c3cccs3)ccc2c1N (stereo not shown) [SW206980]
effect on CellTitre-Glo levels (A549 cells [3]): No effect
highest PGE2 level in medium (A549 cells [2]; IL-1β 16 h, then compound 8 h): 2500 pg/mL
Toxicity [4]: >7.5 µM

CC(=O)OCCCS(=O)(=O)c1sc2nc(-c3cccs3)cc(-c3ccccc3)c2c1N [SW209272, 3-((3-amino-4-phenyl-6-(thiophen-2-yl)thieno[2,3-b]pyridin-2-yl)sulfonyl)propyl acetate]
IC50 (recombinant 15-PGDH [1]): 530 nM

CCCC[S+]([O-])c1sc2nc(-c3nccs3)ccc2c1N (stereo not shown) [SW206992]
effect on CellTitre-Glo levels (A549 cells [3]): No effect
Δ Tm (NADH) (recombinant 15-PGDH [5]): 19 °C
melting temperature (recombinant 15-PGDH [5]; 10 μM 15-PGDH, NAD(+) 100 μM, control 49): 59 degrees
melting temperature (recombinant 15-PGDH [5]; 10 uM 15-PGDH, NADH 100 uM, control 55): 68.5 degrees
concentration needed to induce maximal reporter induction ([6]; exposure for 24 hours): ≥ 1000 nM
Concentration for Full Cell Line Reporter Induction [6]: >1 µM
pIC50 (recombinant 15-PGDH [1]; Table 2 summary): 8.85
IC50 (recombinant 15-PGDH [1]): 1.41 nM
Time to inhibition (10 nM) (recombinant 15-PGDH [1]; time to inhibit NADH generation after drug is added, 10 nM): ~2 min
concentration at which maximal effect on PGE2 is attained (A549 cells [2]; IL-1β 16 h, then compound 8 h): 2.5 µM
highest PGE2 level in medium (A549 cells [2]; IL-1β 16 h, then compound 8 h): 2100 pg/mL
Toxicity [4]: >7.5 µM

CCCC[S+]([O-])c1sc2nc(-c3nccs3)cc(-c3nccs3)c2c1N (stereo not shown) [SW209124, 2-(butylsulfinyl)-4,6-di(thiazol-2-yl)thieno[2,3-b]pyridin-3-amine]
induction of PGE2 compared with SW033291 (A549 cells [2]): increased activity relative to SW033291

(+) SW209415
time of peak PGE2 [7]: 3 h

CCCCSc1sc2nc(-c3ccccc3)ccc2c1N [SW208435, 2-(butylthio)-6-phenylthieno[2,3-b]pyridin-3-amine]
IC50 (recombinant 15-PGDH [1]): > 2500 nM

CCCC[S+]([O-])c1sc2nc(-c3nccs3)cc(-c3cnc(C)n3C)c2c1N (stereo not shown) [SW209415, 2-(butylsulfinyl)-4-(1,2-dimethyl-1H-imidazol-5-yl)-6-(thiazol-2-yl)thieno[2,3-b]pyridin-3-amine]
increase of homed donor cells in recipient bone marrow (mice; 10 mg/kg IP, FIG. 140): approximately 2.5 fold
share of 15-PGDH inhibitory activity due to the (+) optical isomer (recombinant 15-PGDH [1]): at least 98%

COc1ccc(OC)c(N(CC(=O)Nc2cccnc2)S(=O)(=O)c2ccccc2)c1 [SW054384]
15-PGDH mRNA levels (15-PGDH mRNA): do not in general alter 15-PGDH mRNA levels
direct binding to 15-PGDH, in words (recombinant 15-PGDH [5]; melting temperature shift, cofactor 10 μM and 100 μM): cannot be demonstrated to bind
concentration of maximum activity [6]: 6.25 µM
luciferase activity, in words [6]: increase luciferase activity
PGE2 level (A549 cells [2]; compound from 24 hours before IL1-beta, maintained next 26 hours): lower level of PGE2

CCCCC(C)(C)[C@H](O)/C=C/[C@H]1[C@H](O)CC(=O)[C@@H]1C/C=C\CCCC(=O)O [dmPGE2, 16,16-dimethyl PGE2]
increase in colonies compared with SW033291 treated marrow, in words (bone marrow): slightly greater increase

CCCCSc1cc2ccc(-c3ccccc3)nc2s1 [SW208430, 2-(butylthio)-6-phenylthieno[2,3-b]pyridine]
IC50 (recombinant 15-PGDH [1]): > 2500 nM

CCCC[S+]([O-])c1sc2nc(-c3cccs3)cc(-c3ccc(Br)cc3)c2c1N (stereo not shown) [SW208199]
IC50 (recombinant 15-PGDH [1]): 2.9 nM

(−) SW209415
pIC50 (recombinant 15-PGDH [1]; FIG. 135): 6.79

CCCC[S+]([O-])c1cc2ccc(-c3ccccc3)nc2s1 (stereo not shown) [SW208432, 2-(butylsulfinyl)-6-phenylthieno[2,3-b]pyridine]
IC50 (recombinant 15-PGDH [1]): 3.53 nM

CC(C)[S+]([O-])c1sc2nc(-c3nccs3)cc(-c3cccnc3)c2c1N (stereo not shown) [SW208778]
IC50 (recombinant 15-PGDH [1]): 3.99 nM

O=C(c1ccc2nc(-c3ccccc3)c(-c3ccccc3)nc2c1)N1CCCCC1 [SW145753]
15-PGDH mRNA levels (15-PGDH mRNA): do not in general alter 15-PGDH mRNA levels
luciferase activity, in words [6]: increase luciferase activity
15-PGDH activity in cells as reflected in PGE2 levels (A549 cells [2]; IL1-beta 23 hours, compound for last 5 hours): clear inhibition of 15-PGDH activity

CCCCSc1ncccc1N [SW208068]
IC50 (recombinant 15-PGDH [1]): > 7500 nM

CCCC[S+]([O-])c1sc2nc(-c3nccs3)cc(-c3ccccc3)c2c1N (stereo not shown) [SW208066]
rank of PGE2 level in medium (A549 cells [2]): highest levels of PGE2

Nc1c([S+]([O-])CCCCO)sc2nc(-c3cccs3)cc(-c3ccccc3)c12 (stereo not shown) [SW209271, 4-((3-amino-4-phenyl-6-(thiophen-2-yl)thieno[2,3-b]pyridin-2-yl)sulfinyl)butan-1-ol]
IC50 (recombinant 15-PGDH [1]): 34.2 nM

CC(=O)OCCC[S+]([O-])c1sc2nc(-c3cccs3)cc(-c3ccccc3)c2c1N (stereo not shown) [SW209273, 3-((3-amino-4-phenyl-6-(thiophen-2-yl)thieno[2,3-b]pyridin-2-yl)sulfinyl)propyl acetate]
IC50 (recombinant 15-PGDH [1]): 21.6 nM

CCCC[S+]([O-])c1sc2nc(-c3cccs3)cc(C)c2c1N (stereo not shown) [SW208488, 2-(butylsulfinyl)-4-methyl-6-(thiophen-2-yl)thieno[2,3-b]pyridin-3-amine]
IC50 (recombinant 15-PGDH [1]): 1.43 nM

COc1ccc2c(c1)c(CC(=O)O)c(C)n2C(=O)c1ccc(Cl)cc1 [indomethacin, reference compound]
effect of co-treatment on the homing effect of SW033291 (mice; with SW033291 10 mg/kg IP): near completely blocked

CCCC[S+]([O-])c1sc2nc(-c3ccccc3)nc(-c3ccccc3)c2c1N (stereo not shown) [SW208065]
Δ Tm (NADH) (recombinant 15-PGDH [5]; shift in melting temperature, cofactor NADH present): 13 °C
Concentration for Full Cell Line Reporter Induction [6]: ~0.1 µM

CS(=O)(=O)c1sc2nc(-c3cccs3)cc(-c3ccccc3)c2c1N [SW033290]
IC50 (recombinant 15-PGDH [1]): 525 nM

CCC[S+]([O-])c1sc2nc(-c3nccs3)cc(-c3nccn3C)c2c1N (stereo not shown) [SW209280, 4-(1-methyl-1H-imidazol-2-yl)-2-(propylsulfinyl)-6-(thiazol-2-yl)thieno[2,3-b]pyridin-3-amine]
IC50 (recombinant 15-PGDH [1]): 3.73 nM

CCCC[S+]([O-])c1sc2nc(-c3nccs3)c(C(=O)OCC)c(-c3ccc(Br)cc3)c2c1N (stereo not shown) [SW209123, Ethyl 3-amino-4-(4-bromophenyl)-2-(butylsulfinyl)-6-(thiazol-2-yl)thieno[2,3-b]pyridine-5-carboxylate]
IC50 (recombinant 15-PGDH [1]): 40.8 nM
